Results on two compounds are retold here after US4663326A, “Pyrazolo[4,3-d]pyrimidine-5,7-(4H,6H)dione or -5-thione-7-one analogs” (Warner-Lambert Company, priority 1985, dated 1987).

One experiment has as its system histamine. The experiment in a line: Bronchodilator test (BCA), histamine spasmogen, guinea pigs. The class given is in vivo, Hartley Guinea Pigs. Details: key: Active. Conditions: 50 mg/kg. From the text:
The compounds of this invention may be determined to have antiallergy activity by a standard laboratory means employing the bronchodilator test (BCA) readily accepted as a standard for antiallergy activity, which is described in Siegmund, H. O., et al (J. Pharmacol. and Exptl., 90:254, 1949 and Herxheimer, H., J. Physiol., 117: 252-255, 1952). Thus, antiallergy activity was found for compounds of this invention by this BCA test using Hartley Guinea Pigs by the procedures as described below.
Naive (BCA) pigs are exposed to spasmogen for ten minutes by means of a De Vilbiss number 40 nebulizer positioned at the back of a closed, six unit plexiglas chamger (19×12.5×9"). Air flow is adjusted to give a pressure of 10 lbs/in; six animals per treatment are averaged, and the mean value for compound treated animals is compared to that for animals treated with vehicle. […]
The spasmogen may be acetylcholine chloride (0.3%), histamine (0.1%), methacholine chloride (Mecholyl) (0.1%) or serotonin creatinine sulfate. Each nebulizer dispenses 0.2 cc/minute.

Experiment [1] deals with T1, adenosine receptors (designated A1) (Rattus norvegicus, UniProt P25099).
T1 construct: Whole brain minus cerebellum and brainstem from male Long Evans rats (150-200 g); from tissue; host or cells: whole brain minus cerebellum and brainstem, male Long Evans rats, membranes
T1 sequence (P25099 1-326): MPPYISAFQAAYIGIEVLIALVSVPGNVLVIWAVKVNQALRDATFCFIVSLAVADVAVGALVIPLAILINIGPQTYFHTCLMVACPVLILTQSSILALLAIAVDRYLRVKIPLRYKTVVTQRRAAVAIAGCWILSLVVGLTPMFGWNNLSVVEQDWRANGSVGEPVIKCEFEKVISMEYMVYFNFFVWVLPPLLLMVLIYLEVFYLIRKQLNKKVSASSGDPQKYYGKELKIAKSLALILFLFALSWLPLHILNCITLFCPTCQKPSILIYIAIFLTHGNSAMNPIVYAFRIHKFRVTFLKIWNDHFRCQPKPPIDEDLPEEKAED
The experiment can be described thus: Adenosine receptor binding - A1 receptor affinity (RBA1), [3H]-CHA displacement, rat whole brain minus cerebellum and brainstem membranes. Details: species or system rat (male Long Evans). The following applies: 1.0 nM [3H]-CHA, 25° C., pH 7.7; repeat tests (Test 1-4) one line each; read-out: RBA-1 (IC50, adenosine A1 affinity). The protocol:
ADENOSINE RECEPTOR BINDING-A1 RECEPTOR AFFINITY (RBA1)
Whole brain minus cerebellum and brainstem from male Long Evans rats (150-200 g) was homogenized in 30 volumes of ice-cold 0.05M Tris-HCl buffer pH 7.7 using a Brinkman Polytron PT-10, (setting number 6 for 20 seconds) and centrifuged for ten minutes at 20,000×g (Sorvall RC-2), 4° C. The supernatant was discarded, and the pellet was resuspended and centrifuged as before. The pellet was resuspended in 20 ml Tris-HCl buffer containing two International Units/ml of adenosine deaminase (Sigma type III from calf intestinal mucosa), incubated at 37° C. for 30 minutes, then subsequently at 0° C. for ten minutes. The homogenate was again centrifuged, and the final pellet was resuspended in ice-cold 0.05M Tris-HCl buffer pH 7.7 to a concentration of 20 mg/ml original wet tissue weight and used immediately.
Tissue homogenate (10 mg/ml) was incubated in 0.05M Tris-HCl buffer pH 7.7 containing 1.0 nM [^3 H]-N^6 -cyclohexyladenosine (^3 H]-CHA) with or without test agents in triplicate for one hour at 25° C. Incubation volume was 2 ml. Unbound [^3 H]-CHA was separated by rapid filtration under reduced pressure through Whatman glass fiber (GF/B) filters. The filters were rinsed three times with 5 ml of ice cold 0.05M Tris-HCl buffer pH 7.7. The radio-labeled ligand retained on the filter was measured by liquid scintillation spectrophotometry after shaking the filters for one hour or longer on a mechanical shaker in 10 ml of Beckman Ready-Solv HP scintillation cocktail.
Nonspecific binding was defined as the binding which occurred in the presence of 1 mM theophylline. The concentration of test agent which inhibited 50% of the specific binding (IC50) was determined by nonlinear computer curve fit. The Scatchard plot was calculated by linear regression of the line obtained by plotting the amount of radioligand bound ([…]) versus [bound radioligand/free radioligand].Since the amount of radioligand bound was a small fraction of the total amount added, free radioligand was defined as the concentration (nM) of radioligand added to the incubation mixture. The Hill coefficient was calculated by linear regression of the line obtained by plotting the log of the bound radioligand vs the log of the [bound radioligand/(Bmax -bound radioligand)]. The maximal number of binding sites (Bmax) was calculated from the Scatchard plot.

pIC50: −log10 of the molar value.

In the case of `Cc1nn(C)c2c(=O)[nH]c(=O)[nH]c12` [Example 1, 1,3-Dimethylpyrazolo[4,3-d]pyrimidine-5,7-(4H, 6H)dione], the “BCA Results, Ratings” value in the experiment on histamine is recorded as “A”. The pIC50 (commonly −log10 of the IC50, conventionally taken in molar units) in experiment [1] is 4.96. With `CCn1nc(C)c2[nH]c(=S)[nH]c(=O)c21` [Example 2, 1-Ethyl-1,4,5,6-tetrahydro-3-methyl-pyrazolo[4,3-d]pyrimidine-5-thione-7-on], the pIC50 in experiment [1] was 4.71.
